Assay results from patent US11014902B2, “MYC G-quadruplex stabilizing small molecules and their use” (The United States of America, as represented by the …, priority 2015, dated 2021).

Columns and labels:
wild type Pu27 sequence = assay: PCR stop assay, wild type sequence; assay type: biochemical; details: concentrations comparable to the Kd
[1] = tested on: c-MYC expression in L363 cells; assay: Inhibition of c-MYC expression in L363 cells (Peggy); assay type: cell-based, human; details: Homo sapiens, L-363, L363 cells, at 10 μM; read-out: Peggy (% c-Myc expression compared to untreated)
Excerpt: FIG. 10 illustrates an exemplary procedure for generating analogs of Compound 1. The amine group of Compound 1 can be varied in reductive aminations to provide additional analogs. […] The table also provides an indication of an exemplary commercial source for the compounds, or (if applicable) an indication that the compound is new.

[2] = tested on: peripheral blood mononucleocytes; assay: Viability of peripheral blood mononucleocytes; assay type: cell-based; details: healthy volunteer cells; doses 25% higher than for cell treatments
Procedure: Since two thirds of multiple myeloma cases involve deregulated c-MYC expression (Kuehl and Bergsagel, Blood 2012, 120, 2351; Shou, et al., Proc Natl Acad Sci USA 2000, 97, 228), we elected to evaluate the cell viability effects of Compound 1 in a multiple myeloma model. […] This suppression was maintained over 72 hours, which is notable given the characteristic rapid replenishment of the protein—a phenomenon that complicates targeting c-Myc at the protein level (FIG. 4C). This effect was maintained across a genetically diverse set of 4 multiple myeloma lines. We observed decreases in c-MYC translation in all lines tested, and this effect also correlated with decreases in viability (FIG. 4D).

L363 cells = assay: Cell cycle analysis (propidium iodide staining); assay type: cell-based, human; details: 10 μM, after 72 hours
Procedure: To further explore the mechanism of action for the anticancer activity of Compound 1, cell cycle analysis was performed and monitored for potential induction of apoptotic death. […] Additionally, minimal increases in apoptosis were observed, by Annexin V/7-AAD staining and FACS analysis; only 13% of the cells were undergoing apoptosis (FIG. 5B).

myeloma cells = assay: Senescence in myeloma cells; assay type: cell-based, human; details: 10 μM, after 72 hours
786-0 = assay: NCI-60 cell growth (SRB); assay type: cell-based; details: 786-0, Renal Cancer; 10 μM, 48 hours
Procedure: (§1) This example illustrates that Compounds 1 and 23 can be used in inhibit the growth of c-Myc expressing cancer cell lines in vitro. The NCI-60 panel of cancer cell lines (see Shoemaker, Nat. Rev. Cancer, 6, 813-823, 2006, and dtp.cancer.gov/discovery_development/nci-60/) was assayed for cell growth in the presence of 10 μM Compound 1 or Compound 23 for 48 hours. At 48 hours, the assay was terminated by fixation with TCA and determination of relative cell counts by addition of Sulforhodamine B (SRB, see Alley et al., Cancer Research, 48: 589-601, 1988.). Growth percent was determined by comparison of SRB reading of a duplicate plate of cells taken at the time of compound addition to the SRB reading at the termination of the treatment. The following table provides a summary of the percent of growth of each cell line in the panel compared to control (no treatment), as well as the mean delta and range of percent growth compared to control across the panel of cell lines for each treatment condition.

CAKI-1 = assay: NCI-60 cell growth (SRB); assay type: cell-based; details: CAKI-1, Renal Cancer; 10 μM, 48 hours
Procedure: as §1

HCT-15 = assay: NCI-60 cell growth (SRB); assay type: cell-based; details: HCT-15, Colon Cancer; 10 μM, 48 hours
Procedure: as §1

HT29 = assay: NCI-60 cell growth (SRB); assay type: cell-based; details: HT29, Colon Cancer; 10 μM, 48 hours
Procedure: as §1

K-562 = assay: NCI-60 cell growth (SRB); assay type: cell-based; details: K-562, Leukemia; 10 μM, 48 hours
Procedure: as §1

KM12 = assay: NCI-60 cell growth (SRB); assay type: cell-based; details: KM12, Colon Cancer; 10 μM, 48 hours
Procedure: as §1

MCF7 = assay: NCI-60 cell growth (SRB); assay type: cell-based; details: MCF7, Breast Cancer; 10 μM, 48 hours
Procedure: as §1

NCI/ADR-RES = assay: NCI-60 cell growth (SRB); assay type: cell-based; details: Ovarian Cancer, 10 μM, 48 hours
Procedure: as §1

OVCAR-4 = assay: NCI-60 cell growth (SRB); assay type: cell-based; details: OVCAR-4, Ovarian Cancer; 10 μM, 48 hours
Procedure: as §1

PC-3 = assay: NCI-60 cell growth (SRB); assay type: cell-based; details: PC-3, Prostate Cancer; 10 μM, 48 hours
Procedure: as §1

SK-OV-3 = assay: NCI-60 cell growth (SRB); assay type: cell-based; details: SK-OV-3, Ovarian Cancer; 10 μM, 48 hours
Procedure: as §1

SN12C = assay: NCI-60 cell growth (SRB); assay type: cell-based; details: Renal Cancer, 10 μM, 48 hours
Procedure: as §1

SNB-75 = assay: NCI-60 cell growth (SRB); assay type: cell-based; details: SNB-75, CNS Cancer; 10 μM, 48 hours
Procedure: as §1

Compound | inhibition of PCR amplification (wild type Pu27 sequence) | activity at 10 µM [1] | viability [2] | treated cells arrested in the G1 phase (L363 cells) | senescent state (myeloma cells) | Growth Percent (786-0) | Growth Percent (CAKI-1) | Growth Percent (HCT-15) | Growth Percent (HT29) | Growth Percent (K-562) | Growth Percent (KM12) | Growth Percent (MCF7) | Growth Percent (NCI/ADR-RES) | Growth Percent (OVCAR-4) | Growth Percent (PC-3) | Growth Percent (SK-OV-3) | Growth Percent (SN12C) | Growth Percent (SNB-75)
Cc1ccc(NC(=O)c2c(C)oc3ccc(O)c(CN4CCCCCC4)c23)cc1 [Compound 1] | dose-dependent inhibition | 50% | did not alter viability | ~85% | triggered a senescent state | 84.68% | 75.13% | 83.45% | 100.25% | 75.93% | 102.59% | 78.41% | 89.34% | 82.06% | 79.90% | 100.26% | 84.31% | 78.34%
Cc1oc2ccc(O)c(CN3CCCCCC3)c2c1C(=O)Nc1ccc(C(F)(F)F)cc1 [Compound 23] | – | 0.44% | – | – | – | 49.50% | 50.46% | 45.06% | 80.45% | 29.63% | 65.50% | 48.09% | 53.65% | 58.58% | 45.70% | 76.35% | 66.72% | 50.57%
